# Data taken from US6482815B1 (priority 1999, dated 2002).
# Where two headings read alike, the source gives them in different places.
# Columns and labels:
# NALM-6 [1] = assay: cells; format: cell-based; details: Homo sapiens, NALM-6, read-out: NALM-6 IC50
# MOLT-3 [2] = assay: cells; format: cell-based; details: Homo sapiens, MOLT-3, read-out: MOLT-3 IC50
# ALL1 = assay: cells; format: cell-based; details: Homo sapiens, read-out: ALL1 IC50
# RS4;11 = assay: cells; format: cell-based; details: Homo sapiens, RS4-11, read-out: RS4;11 IC50
# NALM-6 [3] = assay: Anti-proliferative activity (colony counts), NALM-6; format: cell-based, human
# Source text: (§1) The dose-responsive anti-proliferative activity of various organic arsenic acid substituted compounds against leukemic cell lines (NALM-6 and MOLT-3) is shown below in Table 3. FIGS. 3A-3F show dose response curves in ALL1, NALM-6, and MOLT-3 cells.
# MOLT-3 [4] = assay: Anti-proliferative activity (colony counts), MOLT-3; format: cell-based, human
# Source text: as §1
# NALM-6 [5] = assay: In situ detection of apoptosis (nick-end-labeling, ApopTag), NALM-6; format: cell-based, human; details: NALM-6, WHI-P381 2 μg/ml, 36 hour incubation (FIG. 1B)
# Protocol: (§2) Assay for apoptosis was performed by the in situ nick-end-labeling method using an ApopTag in situ detection kit (Oncor, Gaithersburg, Md.) according to the manufacturer's recommendations. Exponentially growing cells (NALM-6 and MOLT-3) were seeded in 6-well tissue culture plates at a density of 50×10^4 cells/well and cultured for 36 hours at 37° C. in a humidified 5% CO2 atmosphere. The supernatant culture medium was carefully aspirated and replaced with fresh medium alone or fresh medium containing WHI-P381 at a concentration of 2 μg/ml.
# (§3) After a 36 hour incubation at 37° C. in a humidified 5% CO2 incubator, the supernatants were carefully aspirated and the cells were treated for 1-2 minutes with 0.1% trypsin. The detached cells were collected into a 15 ml centrifuge tube, washed with medium and pelleted by centrifugation at 1000 rpm for 5 minutes. Cells were resuspended in 50 μl of PBS, transferred to poly-L-lysine coated coverslips and allowed to attach for 15 minutes. The cells were washed once with PBS and incubated with equilibration buffer for 10 minutes at room temperature.
# (§4) After removal of the equilibration buffer, cells were incubated for 1 hour at 37° C. with the reaction mixture containing terminal deoxynucleotidyl transferase (TdT) and digoxigenin-11-UTP for labeling of exposed 3′-hydroxyl ends of fragmented nuclear DNA. […]
# MOLT-3 [6] = assay: In situ detection of apoptosis (nick-end-labeling, ApopTag), MOLT-3; format: cell-based, human; details: MOLT-3, WHI-P381 2 μg/ml, 36 hour incubation (FIG. 1D)
# Protocol: as §2, §3, §4
# BT20 [7] = tested on: BT20
# BT20 [8] = assay: cells; details: Homo sapiens, BT-20, read-out: BT20 IC50
# [9] = tested on: leukemic cell lines (NALM-6, MOLT-3, ALL1, RS4;11); assay: cells; details: Homo sapiens, read-out: IC50 values in leukemic cell lines
# primary leukemic cells = assay: MTT cytotoxicity against primary leukemic cells; details: cells from 5 leukemia patients, FIGS. 4A-4E
# NALM-6 cells = assay: MTT cytotoxicity over 1-4 days versus arsenic trioxide, NALM-6; details: for IC50: Homo sapiens
# [10] = NALM-6, concentration 0.1 (mM as printed)
# [11] = NALM-6, concentration 1 (mM as printed)
# [12] = NALM-6, concentration 10 (mM as printed)
# [13] = NALM-6, concentration 100 (mM as printed)
# [14] = MOLT-3, concentration 0.1 (mM as printed)
# [15] = MOLT-3, concentration 1 (mM as printed)
# [16] = MOLT-3, concentration 10 (mM as printed)
# [17] = MOLT-3, concentration 100 (mM as printed)
compound,measurement,setting,value
"CSc1nccc(Nc2ccccc2[As](=O)(O)O)n1 [WHI-P381, 2-Methylthio4-(2′-phenylarsenic acid)-aminopyrimidine]",IC50,NALM-6 [1],< 1900 nM
same,IC50,MOLT-3 [2],< 1900 nM
same,IC50,ALL1,< 1900 nM
same,IC50,RS4;11,< 1900 nM
same,% Inhibition,NALM-6 [3]; [10],100%
same,Mean No. of Colonies/10^6 Cells,NALM-6 [3]; [10],0 Colonies/10^6 Cells
same,% Inhibition,NALM-6 [3]; [11],100%
same,Mean No. of Colonies/10^6 Cells,NALM-6 [3]; [11],0 Colonies/10^6 Cells
same,% Inhibition,NALM-6 [3]; [12],100%
same,Mean No. of Colonies/10^6 Cells,NALM-6 [3]; [12],0 Colonies/10^6 Cells
same,% Inhibition,NALM-6 [3]; [13],100%
same,Mean No. of Colonies/10^6 Cells,NALM-6 [3]; [13],0 Colonies/10^6 Cells
same,% Inhibition,MOLT-3 [4]; [14],70.2%
same,Mean No. of Colonies/10^6 Cells,MOLT-3 [4]; [14],"429(202, 656) Colonies/10^6 Cells"
same,% Inhibition,MOLT-3 [4]; [15],100%
same,Mean No. of Colonies/10^6 Cells,MOLT-3 [4]; [15],0 Colonies/10^6 Cells
same,% Inhibition,MOLT-3 [4]; [16],100%
same,Mean No. of Colonies/10^6 Cells,MOLT-3 [4]; [16],0 Colonies/10^6 Cells
same,% Inhibition,MOLT-3 [4]; [17],100%
same,Mean No. of Colonies/10^6 Cells,MOLT-3 [4]; [17],0 Colonies/10^6 Cells
same,apoptosis: fluorescence versus untreated cells,NALM-6 [5],much greater Fluorescence
same,apoptosis: fluorescence versus untreated cells,MOLT-3 [6],much greater Fluorescence
same,melting point,,225 to 228 °C
same,cytotoxic against the breast cancer cell line BT20 (in words),BT20 [7],cytotoxic
same,IC50,BT20 [8],17300 nM
same,IC50,[9],≤ 1900 nM
same,cytotoxic activity against primary leukemic cells (in words),primary leukemic cells,susceptible to the cytotoxic effects
same,IC50,"NALM-6 cells; NALM-6, 24 h, read-out: Cytotoxicity against NALM-6 cells IC50, Day 1",2030 nM
same,IC50,"NALM-6 cells; NALM-6, 48 h, read-out: Cytotoxicity against NALM-6 cells IC50, Day 2",850 nM
same,IC50,"NALM-6 cells; NALM-6, 72 h, read-out: Cytotoxicity against NALM-6 cells IC50, Day 3",700 nM
same,IC50,"NALM-6 cells; NALM-6, 96 h, read-out: Cytotoxicity against NALM-6 cells IC50, Day 4",680 nM
same,cytotoxicity compared with arsenic trioxide (in words),"NALM-6 cells; NALM-6, 0.07 μM to 5 μM, 1-4 days, FIGS. 2A-2D",more cytotoxic than arsenic trioxide
